Tests used:
[1] = system: T1, PAL from Anabaena flos-aquae (A. flos-aquae PAL); experiment: forward deamination assay, cinnamic acid absorbance at […] nm; assay type: biochemical, Dolichospermum flosaquae; conditions: Tris-HCl pH 8.9; standard assay at 37 °C
T1 construct: native enzyme purified from algal culture (acetone precipitation, Sephadex G-200, DEAE-cellulose); 64 kDa band on SDS-PAGE

[2] = system: T2, PAL from Spirulina platensis (S. platensis PAL); experiment: as above; assay type: biochemical, Limnospira platensis; conditions: Tris-HCl pH 8.9; standard assay at 37 °C
T2 construct: native enzyme purified from algal culture (acetone precipitation, Sephadex G-200, DEAE-cellulose); 64 kDa band on SDS-PAGE

[3] = system: T1, PAL from Anabaena flos-aquae (A. flos-aquae PAL); experiment: reverse hydroamination assay, L-phenylalanine formation at […] nm; assay type: biochemical, Dolichospermum flosaquae; conditions: co-substrate NH4OH (stock 5 M); Tris-HCl pH 8.9; standard assay at 37 °C
[4] = system: T2, PAL from Spirulina platensis (S. platensis PAL); experiment: as above; assay type: biochemical, Limnospira platensis; conditions: co-substrate NH4OH (stock 5 M); Tris-HCl pH 8.9 (standard assay); 37 °C

Structure (SMILES) | Km [1] [µM] | Km [2] [µM] | Km [3] [µM] | Km [4] [µM]
N[C@@H](Cc1ccccc1)C(=O)O [L-phenylalanine] | 1500 | 1640 |  | 
O=C(O)/C=C/c1ccccc1 [trans-cinnamic acid] |  |  | 300 | 610

Reference: publication PMC9728195, “Purification and Characterization of Anabaena flos-aquae Phenylalanine Ammonia-Lyase as a Novel Approach for Myristicin Biotransformation” (Journal of Microbiology and Biotechnology, 2019)
